Measurements reported in patent US11684598B2, “Use of cannabinoids in the treatment of epilepsy” (priority 2015, dated 2023).
Several values for one entry are separate records, joined by “and”; a condition that tells them apart may be missing. Equal entries are not always repeated. Where two headings read alike, the source gives them in different places.

Columns and labels:
[1] = test system: D. discoideum growth upon R. planticola bacterial plates; assay: Bacterial plate screen; format: cell-based, Dictyostelium discoideum; conditions: CBDA 12.3 μM, CBD 16.7 μM; 4 days
Protocol: Heat killed (75° C. for 30 minutes) R. planticola was spread onto the plates and ˜50 wild-type A×2 cells were added and left to grow at 22° C. Plates were checked regularly for colonies.

[2] = Toxicokinetics from toxicological studies in dogs, daily oral (gavage) administration; format: in vivo, dog; conditions: for Vd/F: read-out: Vz/F
Protocol: Samples were taken from the jugular vein into lithium heparin. Samples were mixed gently by hand then continuously for at least 2 minutes on automatic mixer and placed in a Kryorack until centrifugation, which was carried out at approximately 4° C. as soon as practicable. The resultant plasma was separated under low light conditions, transferred to uniquely labelled clear glass vials, placed in light proof boxes and frozen immediately at <−50° C.

[3] = test system: D. discoideum development; assay: D. discoideum development assay; format: cell-based, Dictyostelium discoideum; conditions: 20 μM, 24 h on nitrocellulose filter
Protocol: Wild type (A×2) D. discoideum cells were grown in HL5 shaking culture for two days prior to development assay. Cells were washed in phosphate buffer (KK2; 20 mM Potassium phosphate buffer, pH 6.1), and 1×10^7 cells were spread onto nitrocellulose filters (Millipore, Cork). Absorbent pads (Millipore, Cork), divided into quarters, were placed in 2 ml culture dishes and soaked with 0.5 ml KK2 containing the cannabinoids at 20 μM. 1 mM Valproic acid was used as a positive control while KK2 containing 1% DMSO was used as a solvent only control. Nitrocellulose filters containing cells were quartered and place upon absorbent pads and maintained in a humid environment at 22° C. for 24 h. Fruiting body morphology was recorded using a dissection microscope and camera.

seizures [4] = conditions: 200 mg/day pure CBD, twelve institutionalized adult patients, open label; cited from earlier work
seizures [5] = conditions: mice, after pro-convulsant drugs or an electric current; cited from earlier work
generalized epilepsy = conditions: eight adult patients with generalized epilepsy; cited from earlier work
[6] = CBD 100 mg/kg oral, Day 1, females, Max
[7] = CBD 100 mg/kg oral, Day 1, females, Min
[8] = CBD 100 mg/kg oral, Day 1, females, individual animals (Subjects 115-120)
[9] = CBD 100 mg/kg oral, Day 1, males, Max
[10] = CBD 100 mg/kg oral, Day 1, males, Min
[11] = CBD 100 mg/kg oral, Day 1, males, individual animals (Subjects 15-20)

C=C(C)[C@@H]1CCC(C)=C[C@H]1c1c(O)cc(CCCCC)cc1O [CBD, Cannabidiol]
cell survival (colony number) compared to control (solvent only) [1]: No difference in colony number
tl/2 ([2]; CBD 100 mg/kg oral, Day 1, females, Geometric Mean): 5.9 h
AUC0-inf [2, 6]: 32800 ng·h/mL
AUC0-t [2, 6]: 32400 ng·h/mL
CL/F [2, 6]: 632 mL/min/kg
Cmax [2, 6]: 3780 ng/mL
tl/2 [2, 6]: 8.4 h
tmax [2, 6]: 8.0 h
tl/2 ([2]; CBD 100 mg/kg oral, Day 1, females, Mean, N=4): 6.1 h
tl/2 ([2]; CBD 100 mg/kg oral, Day 1, females, Median): 5.7 h
AUC0-inf [2, 7]: 2640 ng·h/mL
AUC0-t [2, 7]: 2540 ng·h/mL
CL/F [2, 7]: 50.8 mL/min/kg
Cmax [2, 7]: 411 ng/mL
tl/2 [2, 7]: 4.5 h
tmax [2, 7]: 1.0 h
AUC0-inf [2, 8]: 32800 ng·h/mL and 3280 ng·h/mL and 22400 ng·h/mL and 2640 ng·h/mL
AUC0-t [2, 8]: 31300 ng·h/mL and 3000 ng·h/mL and 20000 ng·h/mL and 22600 ng·h/mL and 2540 ng·h/mL and 32400 ng·h/mL
CL/F [2, 8]: 50.8 mL/min/kg and 508 mL/min/kg and 74.5 mL/min/kg and 632 mL/min/kg
Cmax [2, 8]: 3780 ng/mL and 655 ng/mL and 2520 ng/mL and 1900 ng/mL and 411 ng/mL and 3270 ng/mL
tl/2 [2, 8]: 4.7 h and 8.4 h and 6.6 h and 4.5 h
tmax [2, 8]: 2.0 h and 8.0 h and 1.0 h
tl/2 ([2]; CBD 100 mg/kg oral, Day 1, males, Geometric Mean): 7.0 h
AUC0-inf [2, 9]: 60500 ng·h/mL
AUC0-t [2, 9]: 51800 ng·h/mL
CL/F [2, 9]: 82.1 mL/min/kg
Cmax [2, 9]: 4570 ng/mL
tl/2 [2, 9]: 8.6 h
tmax [2, 9]: 8.0 h
tl/2 ([2]; CBD 100 mg/kg oral, Day 1, males, Mean, N=5): 7.2 h
tl/2 ([2]; CBD 100 mg/kg oral, Day 1, males, Median): 7.7 h
AUC0-inf [2, 10]: 20300 ng·h/mL
AUC0-t [2, 10]: 17200 ng·h/mL
CL/F [2, 10]: 27.5 mL/min/kg
Cmax [2, 10]: 1400 ng/mL
tl/2 [2, 10]: 5.4 h
AUC0-inf [2, 11]: 55300 ng·h/mL and 60500 ng·h/mL and 20300 ng·h/mL and 31100 ng·h/mL
AUC0-t [2, 11]: 47300 ng·h/mL and 51800 ng·h/mL and 33000 ng·h/mL and 17200 ng·h/mL and 28700 ng·h/mL and 26400 ng·h/mL
CL/F [2, 11]: 30.1 mL/min/kg and 27.5 mL/min/kg and 82.1 mL/min/kg and 53.6 mL/min/kg
Cmax [2, 11]: 3960 ng/mL and 4570 ng/mL and 3620 ng/mL and 1400 ng/mL and 2430 ng/mL and 3090 ng/mL
tl/2 [2, 11]: 8.6 h and 7.7 h and 5.4 h and 8.5 h and 5.7 h
tmax [2, 11]: 8.0 h
AUC0-inf ([2]; female, dog, plasma, po, 100 mg/kg, CBD 100 mg/kg oral, Day 1, females, Geometric Mean, read-out: AUC0-inf): 8930 ng·h/mL
AUC0-t ([2]; female, dog, plasma, po, 100 mg/kg, CBD 100 mg/kg oral, Day 1, females, Geometric Mean, read-out: AUC0-t): 12300 ng·h/mL
CL/F ([2]; female, dog, plasma, po, 100 mg/kg, CBD 100 mg/kg oral, Day 1, females, Geometric Mean, read-out: CL/F): 187 mL/min/kg
Cmax ([2]; female, dog, plasma, po, 100 mg/kg, CBD 100 mg/kg oral, Day 1, females, Geometric Mean, read-out: Cmax): 1590 ng/mL
Vd/F ([2]; female, dog, plasma, po, 100 mg/kg, CBD 100 mg/kg oral, Day 1, females, Geometric Mean): 94.8 L/kg
AUC0-inf ([2]; female, dog, plasma, po, 100 mg/kg, CBD 100 mg/kg oral, Day 1, females, Mean, N=4, read-out: AUC0-inf): 15300 ng·h/mL
CL/F ([2]; female, dog, plasma, po, 100 mg/kg, CBD 100 mg/kg oral, Day 1, females, Mean, N=4, read-out: CL/F): 316 mL/min/kg
Vd/F ([2]; female, dog, plasma, po, 100 mg/kg, CBD 100 mg/kg oral, Day 1, females, Mean, N=4): 169 L/kg
AUC0-t ([2]; female, dog, plasma, po, 100 mg/kg, CBD 100 mg/kg oral, Day 1, females, Mean, N=6, read-out: AUC0-t): 18600 ng·h/mL
Cmax ([2]; female, dog, plasma, po, 100 mg/kg, CBD 100 mg/kg oral, Day 1, females, Mean, N=6, read-out: Cmax): 2090 ng/mL
AUC0-inf ([2]; female, dog, plasma, po, 100 mg/kg, CBD 100 mg/kg oral, Day 1, females, Median, read-out: AUC0-inf): 12800 ng·h/mL
AUC0-t ([2]; female, dog, plasma, po, 100 mg/kg, CBD 100 mg/kg oral, Day 1, females, Median, read-out: AUC0-t): 21300 ng·h/mL
CL/F ([2]; female, dog, plasma, po, 100 mg/kg, CBD 100 mg/kg oral, Day 1, females, Median, read-out: CL/F): 291 mL/min/kg
Cmax ([2]; female, dog, plasma, po, 100 mg/kg, CBD 100 mg/kg oral, Day 1, females, Median, read-out: Cmax): 2210 ng/mL
Vd/F ([2]; female, dog, plasma, po, 100 mg/kg, CBD 100 mg/kg oral, Day 1, females, Median): 145 L/kg
tmax ([2]; female, dog, plasma, po, 100 mg/kg, CBD 100 mg/kg oral, Day 1, females, Median, read-out: tmax): 4 h
AUC0-t ([2]; female, dog, plasma, po, 100 mg/kg, comparative Table 11, females, 100 mg/kg, Day 1, mean, read-out: AUC0-t): 18600 ng·h/mL
Cmax ([2]; female, dog, plasma, po, 100 mg/kg, comparative Table 11, females, 100 mg/kg, Day 1, mean, read-out: Cmax): 2090 ng/mL
AUC0-inf ([2]; male, dog, plasma, po, 100 mg/kg, CBD 100 mg/kg oral, Day 1, males, Geometric Mean, read-out: AUC0-inf): 37600 ng·h/mL
AUC0-t ([2]; male, dog, plasma, po, 100 mg/kg, CBD 100 mg/kg oral, Day 1, males, Geometric Mean, read-out: AUC0-t): 31900 ng·h/mL
CL/F ([2]; male, dog, plasma, po, 100 mg/kg, CBD 100 mg/kg oral, Day 1, males, Geometric Mean, read-out: CL/F): 44.4 mL/min/kg
Cmax ([2]; male, dog, plasma, po, 100 mg/kg, CBD 100 mg/kg oral, Day 1, males, Geometric Mean, read-out: Cmax): 2970 ng/mL
Vd/F ([2]; male, dog, plasma, po, 100 mg/kg, CBD 100 mg/kg oral, Day 1, males, Geometric Mean): 27 L/kg
AUC0-inf ([2]; male, dog, plasma, po, 100 mg/kg, CBD 100 mg/kg oral, Day 1, males, Mean, N=5, read-out: AUC0-inf): 40500 ng·h/mL
CL/F ([2]; male, dog, plasma, po, 100 mg/kg, CBD 100 mg/kg oral, Day 1, males, Mean, N=5, read-out: CL/F): 48.1 mL/min/kg
Vd/F ([2]; male, dog, plasma, po, 100 mg/kg, CBD 100 mg/kg oral, Day 1, males, Mean, N=5): 29.9 L/kg
AUC0-t ([2]; male, dog, plasma, po, 100 mg/kg, CBD 100 mg/kg oral, Day 1, males, Mean, N=6, read-out: AUC0-t): 34100 ng·h/mL
Cmax ([2]; male, dog, plasma, po, 100 mg/kg, CBD 100 mg/kg oral, Day 1, males, Mean, N=6, read-out: Cmax): 3180 ng/mL
AUC0-inf ([2]; male, dog, plasma, po, 100 mg/kg, CBD 100 mg/kg oral, Day 1, males, Median, read-out: AUC0-inf): 35400 ng·h/mL
AUC0-t ([2]; male, dog, plasma, po, 100 mg/kg, CBD 100 mg/kg oral, Day 1, males, Median, read-out: AUC0-t): 30800 ng·h/mL
CL/F ([2]; male, dog, plasma, po, 100 mg/kg, CBD 100 mg/kg oral, Day 1, males, Median, read-out: CL/F): 47.1 mL/min/kg
Cmax ([2]; male, dog, plasma, po, 100 mg/kg, CBD 100 mg/kg oral, Day 1, males, Median, read-out: Cmax): 3360 ng/mL
Vd/F ([2]; male, dog, plasma, po, 100 mg/kg, CBD 100 mg/kg oral, Day 1, males, Median): 22.3 L/kg
tmax ([2]; male, dog, plasma, po, 100 mg/kg, CBD 100 mg/kg oral, Day 1, males, Median, read-out: tmax): 6 h
tmax ([2]; male, dog, plasma, po, 100 mg/kg, CBD 100 mg/kg oral, Day 1, males, individual animals (Subjects 15-20), read-out: tmax): 6 h
AUC0-t ([2]; male, dog, plasma, po, 100 mg/kg, comparative Table 10, males, 100 mg/kg, Day 1, mean, read-out: AUC0-t): 34100 ng·h/mL
Cmax ([2]; male, dog, plasma, po, 100 mg/kg, comparative Table 10, males, 100 mg/kg, Day 1, mean, read-out: Cmax): 3180 ng/mL
effect on development (fruiting body morphology) [3]: able to aggregate and develop to form mature fruiting bodies
control of seizures (seizures [4]): ineffective in controlling seizures
prevention of seizures (seizures [5]): able to prevent seizures in mice
reduction of seizures (generalized epilepsy): marked reduction of seizures in 4 of the patients
